Test results taken from patent US20240116985A1, “STAPLED PEPTIDES AND METHODS THEREOF” (priority 2020, published 2024).
≈ marks a conversion by molar mass, not a printed value. Read-outs that look alike come from different tables or passages of the source.

Tests used:
[1] = molecular target: T1, full-length beta-Catenin (Uniprot ID P35222) (Homo sapiens, UniProt P35222); test: Fluorescence polarization IC50 (beta-catenin / 5FAM-TCF4 10-53 competition); type: binding
T1 construct: 10 nM full-length beta-Catenin (Uniprot ID P35222)
T1 sequence (P35222 1-781): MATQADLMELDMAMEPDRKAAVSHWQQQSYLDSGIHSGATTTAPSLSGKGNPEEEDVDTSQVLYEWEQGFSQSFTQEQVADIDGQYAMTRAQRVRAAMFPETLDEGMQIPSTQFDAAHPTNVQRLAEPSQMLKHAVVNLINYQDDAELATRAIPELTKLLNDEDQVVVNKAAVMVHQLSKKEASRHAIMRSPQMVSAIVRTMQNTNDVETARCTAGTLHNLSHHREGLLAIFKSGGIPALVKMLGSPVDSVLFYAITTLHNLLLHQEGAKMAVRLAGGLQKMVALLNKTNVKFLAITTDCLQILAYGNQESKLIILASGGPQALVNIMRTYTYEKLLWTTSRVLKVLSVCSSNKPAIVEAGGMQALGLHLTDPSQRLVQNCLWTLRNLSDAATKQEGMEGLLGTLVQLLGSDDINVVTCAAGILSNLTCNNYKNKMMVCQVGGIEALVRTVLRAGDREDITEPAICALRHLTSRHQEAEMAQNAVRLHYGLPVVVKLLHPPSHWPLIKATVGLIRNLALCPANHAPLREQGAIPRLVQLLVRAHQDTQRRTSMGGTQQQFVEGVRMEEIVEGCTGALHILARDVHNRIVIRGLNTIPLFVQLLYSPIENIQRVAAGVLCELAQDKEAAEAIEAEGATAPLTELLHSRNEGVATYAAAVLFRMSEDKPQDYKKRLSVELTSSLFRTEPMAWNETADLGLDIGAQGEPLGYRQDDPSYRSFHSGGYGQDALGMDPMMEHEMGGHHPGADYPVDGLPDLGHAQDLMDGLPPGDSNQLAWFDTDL

CHI Log D procedure = type: physicochemical; conditions: for chromatographic logD: pH 7.4, CHI Log D; for CHI Log D: pH 7.4
[2] = molecular target: T2, beta-catenin/TCF4 engagement (Homo sapiens, UniProt P35222); test: Nano-BRET target engagement assay (B-cat-Halo & TCF4-Luc in HEK293 cells); type: cell-based; conditions: for inhibition at 10 µM: HEK293, 10 uM, read-out: NanoBRET % inh @ 10 uM
T2 construct: expressed in transfected cells; host or cells: HEK293
T2 sequence (P35222 1-781): T1 sequence (P35222 1-781)

Solubility in PBS = type: physicochemical
In short: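 The PBS solution was ultracentrifuged and the supernatant analyzed by HPLC. Its peak area was divided by that of a 50 μM peptide DMSO reference injection and multiplied by 50 uM to give solubility.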

[3] = fluorescence polarization, beta-catenin, read-out: FP EC50
[4] = absolute IC50, read-out: NanoBRET Abs IC50

IC50 ([1]; read-out: beta-Catenin FP IC50) [nM] | chromatographic logD (CHI Log D procedure) | inhibition at 10 µM [2] [%] | IC50 ([2]; read-out: NanoBRET Abs IC50) [nM] | IC50 ([2]; read-out: NanoBRET IC50) [nM] | Solubility (Solubility in PBS; Solubility (uM)) [µM] | IC50 [1, 3] [nM] | CHI Log D (CHI Log D procedure) | Solubility (Solubility in PBS) [µM] | IC50 [2, 4] [nM] | SMILES
5 | 2.09 | 37.5 | 18300 | > 10000 | 32 (≈ 63.9 µg/mL) |  |  |  |  | CC(=O)N1CCC[C@]12CC=CCCCC1(CCCC=CCCCOC(=O)N3CC[C@@](C(=O)N[C@@H](Cc4ccsc4)C(=O)N[C@@H](Cc4csc5ccccc45)C(=O)N[C@@H](Cc4c[nH]cn4)C(=O)N[C@H](C)C(N)=O)(C3)NC(=O)[C@H](CC(N)=O)NC(=O)[C@H](Cc3ccccc3)NC(=O)[C@H](C)NC(=O)[C@H](C)NC(=O)[C@H](CC(=O)O)NC(=O)[C@H](CC(=O)O)NC1=O)NC(=O)[C@H](CC(C)(C)C)NC(=O)[C@H](CC(=O)O)NC2=O (stereo partly drawn) [I-823, Ac-PL3-Asp-Npg-B5-Asp-Asp-Ala-Ala-Phe-Asn-PyrS2-3Thi-BztA-His-dAla-NH2]
7 | 2.06 |  | 14700 |  | 36 (≈ 71.1 µg/mL) |  |  |  |  | CC(=O)N1CCC[C@]12CC=CCCCC1(CCCC=CCCCOC(=O)N3CC[C@@](C(=O)N[C@@H](Cc4ccsc4)C(=O)N[C@@H](Cc4csc5ccccc45)C(=O)N[C@@H](CC(N)=O)C(=O)N[C@H](C)C(N)=O)(C3)NC(=O)[C@H](CC(N)=O)NC(=O)[C@H](Cc3ccccc3)NC(=O)[C@H](C)NC(=O)[C@H](C)NC(=O)[C@H](CC(=O)O)NC(=O)[C@H](CC(=O)O)NC1=O)NC(=O)[C@H](CC(C)(C)C)NC(=O)[C@H](CC(=O)O)NC2=O (stereo partly drawn) [I-824, Ac-PL3-Asp-Npg-B5-Asp-Asp-Ala-Ala-Phe-Asn-PyrS2-3Thi-BztA-Asn-dAla-NH2]
15 |  |  | 22700 |  |  | 15 | 2.066 | 30 (≈ 60.1 µg/mL) |  | CC(=O)N1CCC[C@]12CC=CCCCC1(CCCC=CCCCCOC(=O)N3CC[C@@](C(=O)N[C@@H](Cc4ccsc4)C(=O)N[C@@H](Cc4csc5ccccc45)C(=O)N[C@@H](CCC(N)=O)C(=O)N[C@@H](C)C(N)=O)(C3)NC(=O)[C@H](CC(N)=O)NC(=O)[C@H](Cc3ccccc3)NC(=O)[C@H](C)NC(=O)[C@H](C)NC(=O)[C@H](CC(=O)O)NC(=O)[C@H](CC(=O)O)NC1=O)NC(=O)[C@H](CC(C)(C)C)NC(=O)[C@H](CC(=O)O)NC2=O (stereo partly drawn) [I-826, Ac-PL3-Asp-Npg-B5-Asp-Asp-Ala-Ala-Phe-Asn-PyrS3-3Thi-BztA-Gln-Ala-NH2]
15 | 2.08 |  | 30200 |  | 34 (≈ 67.6 µg/mL) |  |  |  |  | CC(=O)N1CCC[C@]12CC=CCCCC1(CCCC=CCCCCOC(=O)N3CC[C@@](C(=O)N[C@@H](Cc4ccsc4)C(=O)N[C@@H](Cc4csc5ccccc45)C(=O)N[C@@H](CC(N)=O)C(=O)N[C@@H](C)C(N)=O)(C3)NC(=O)[C@H](CC(N)=O)NC(=O)[C@H](Cc3ccccc3)NC(=O)[C@H](C)NC(=O)[C@H](C)NC(=O)[C@H](CC(=O)O)NC(=O)[C@H](CC(=O)O)NC1=O)NC(=O)[C@H](CC(C)(C)C)NC(=O)[C@H](CC(=O)O)NC2=O (stereo partly drawn) [I-829, Ac-PL3-Asp-Npg-B5-Asp-Asp-Ala-Ala-Phe-Asn-PyrS3-3Thi-BztA-Asn-Ala-NH2]
11 |  | 32.4 | 25600 |  |  | 11 | 2.075 | 50 (≈ 100 µg/mL) |  | CC(=O)N1CCC[C@]12CC=CCCCC1(CCCC=CCCCCOC(=O)N3CC[C@@](C(=O)N[C@@H](Cc4ccsc4)C(=O)N[C@@H](Cc4csc5ccccc45)C(=O)N[C@@H](CCC(N)=O)C(=O)N[C@H](C)C(N)=O)(C3)NC(=O)[C@H](CC(N)=O)NC(=O)[C@H](Cc3ccccc3)NC(=O)[C@H](C)NC(=O)[C@H](C)NC(=O)[C@H](CC(=O)O)NC(=O)[C@H](CC(=O)O)NC1=O)NC(=O)[C@H](CC(C)(C)C)NC(=O)[C@H](CC(=O)O)NC2=O (stereo partly drawn) [I-831, Ac-PL3-Asp-Npg-B5-Asp-Asp-Ala-Ala-Phe-Asn-PyrS3-3Thi-BztA-Gln-dAla-NH2]
8 |  |  | 48100 |  |  | 8 | 2.146 | 50 (≈ 101 µg/mL) |  | CC(=O)N1CCC[C@]12CC=CCCCC1(CCCC=CCCCCOC(=O)N3CC[C@@](C(=O)N[C@@H](Cc4ccsc4)C(=O)N[C@@H](Cc4csc5ccccc45)C(=O)N[C@@H](Cc4c[nH]cn4)C(=O)N[C@H](C)C(N)=O)(C3)NC(=O)[C@H](CC(N)=O)NC(=O)[C@H](Cc3ccccc3)NC(=O)[C@H](C)NC(=O)[C@H](C)NC(=O)[C@H](CC(=O)O)NC(=O)[C@H](CC(=O)O)NC1=O)NC(=O)[C@H](CC(C)(C)C)NC(=O)[C@H](CC(=O)O)NC2=O (stereo partly drawn) [I-833, Ac-PL3-Asp-Npg-B5-Asp-Asp-Ala-Ala-Phe-Asn-PyrS3-3Thi-BztA-His-dAla-NH2]
11 |  | 27.6 | 37600 |  |  | 11 | 2.109 | 50 (≈ 99.5 µg/mL) |  | CC(=O)N1CCC[C@]12CC=CCCCC1(CCCC=CCCCCOC(=O)N3CC[C@@](C(=O)N[C@@H](Cc4ccsc4)C(=O)N[C@@H](Cc4csc5ccccc45)C(=O)N[C@@H](CC(N)=O)C(=O)N[C@H](C)C(N)=O)(C3)NC(=O)[C@H](CC(N)=O)NC(=O)[C@H](Cc3ccccc3)NC(=O)[C@H](C)NC(=O)[C@H](C)NC(=O)[C@H](CC(=O)O)NC(=O)[C@H](CC(=O)O)NC1=O)NC(=O)[C@H](CC(C)(C)C)NC(=O)[C@H](CC(=O)O)NC2=O (stereo partly drawn) [I-835, Ac-PL3-Asp-Npg-B5-Asp-Asp-Ala-Ala-Phe-Asn-PyrS3-3Thi-BztA-Asn-dAla-NH2]
11 | 2.22 |  |  |  | 41 (≈ 78.6 µg/mL) |  |  |  | 16900 | CC(=O)N1CCC[C@]12CC=CCCCC1(CCCC=CCCCOC(=O)N3CC[C@@](C(=O)N[C@@H](Cc4ccsc4)C(=O)N[C@@H](Cc4csc5ccccc45)C(=O)N[C@@H](CCC(N)=O)C(N)=O)(C3)NC(=O)[C@H](CC(N)=O)NC(=O)[C@H](Cc3ccccc3)NC(=O)[C@H](C)NC(=O)[C@H](C)NC(=O)[C@H](CC(N)=O)NC(=O)[C@H](CC(=O)O)NC1=O)NC(=O)[C@H](CC(C)(C)C)NC(=O)[C@H](CC(=O)O)NC2=O (stereo partly drawn) [I-836, Ac-PL3-Asp-Npg-B5-Asp-Asn-Ala-Ala-Phe-Asn-PyrS2-3Thi-BztA-Gln-NH2]
5 | 2.3 |  |  |  | 14 (≈ 27 µg/mL) |  |  |  | 23800 | CC(=O)N1CCC[C@]12CC=CCCCC1(CCCC=CCCCOC(=O)N3CC[C@@](C(=O)N[C@@H](Cc4ccsc4)C(=O)N[C@@H](Cc4csc5ccccc45)C(=O)N[C@@H](Cc4c[nH]cn4)C(N)=O)(C3)NC(=O)[C@H](CC(N)=O)NC(=O)[C@H](Cc3ccccc3)NC(=O)[C@H](C)NC(=O)[C@H](C)NC(=O)[C@H](CC(N)=O)NC(=O)[C@H](CC(=O)O)NC1=O)NC(=O)[C@H](CC(C)(C)C)NC(=O)[C@H](CC(=O)O)NC2=O (stereo partly drawn) [I-837, Ac-PL3-Asp-Npg-B5-Asp-Asn-Ala-Ala-Phe-Asn-PyrS2-3Thi-BztA-His-NH2]
12 | 2.19 |  |  |  | 41 (≈ 79.2 µg/mL) |  |  |  | 17400 | CC(=O)N1CCC[C@]12CC=CCCCC1(CCCC=CCCCOC(=O)N3CC[C@@](C(=O)N[C@@H](Cc4ccsc4)C(=O)N[C@@H](Cc4csc5ccccc45)C(=O)N[C@@H](CCC(N)=O)C(N)=O)(C3)NC(=O)[C@H](CC(N)=O)NC(=O)[C@H](Cc3ccccc3)NC(=O)[C@H](C)NC(=O)[C@H](C)NC(=O)[C@H](CCC(N)=O)NC(=O)[C@H](CC(=O)O)NC1=O)NC(=O)[C@H](CC(C)(C)C)NC(=O)[C@H](CC(=O)O)NC2=O (stereo partly drawn) [I-838, Ac-PL3-Asp-Npg-B5-Asp-Gln-Ala-Ala-Phe-Asn-PyrS2-3Thi-BztA-Gln-NH2]
7 | 2.27 |  |  |  | 13 (≈ 25.2 µg/mL) |  |  |  | 41900 | CC(=O)N1CCC[C@]12CC=CCCCC1(CCCC=CCCCOC(=O)N3CC[C@@](C(=O)N[C@@H](Cc4ccsc4)C(=O)N[C@@H](Cc4csc5ccccc45)C(=O)N[C@@H](Cc4c[nH]cn4)C(N)=O)(C3)NC(=O)[C@H](CC(N)=O)NC(=O)[C@H](Cc3ccccc3)NC(=O)[C@H](C)NC(=O)[C@H](C)NC(=O)[C@H](CCC(N)=O)NC(=O)[C@H](CC(=O)O)NC1=O)NC(=O)[C@H](CC(C)(C)C)NC(=O)[C@H](CC(=O)O)NC2=O (stereo partly drawn) [I-839, Ac-PL3-Asp-Npg-B5-Asp-Gln-Ala-Ala-Phe-Asn-PyrS2-3Thi-BztA-His-NH2]
